Values belong to the molecule of their own block, whether it stands above or below them.
Columns and labels:
MDR2−/− mice = test: MDR2−/− mouse model of sclerosing cholangitis; type: in vivo
Protocol: Methods: 30-day-old female MDR2−/− mice (FVB background) were treated daily for 14 days by orogastric gavage with either vehicle control (Kolliphor and CMC), 100 mg/kg/day bezafibrate (pan-PPAR agonist), 100 mg/kg/day fenofibrate (PPARα agonist), 10 mg/kg seladelpar (PPARδ agonist), 0.008% SC-435 (non-absorbable IBAT inhibitor) admixed to chow, or a combination of SC-435 and PPAR agonists.

[1] = Maralixibat clinical studies in ALGS (LUM001-304, LUM001-303, LUM001-305): pruritus and concomitant antipruritic medication; type: in vivo, human
From the text: In Study LUM001-304, participants were not allowed to make any changes to their antipruritic therapy up to Week 22. In Studies LUM001-301 and LUM001-302, no changes to the antipruritic comedications were allowed throughout the period of the primary analysis up to Week 13. Therefore, across all studies, participants had to be on stable antipruritic medication doses (except for weight-based dose adjustments) throughout the randomized controlled periods. […] Participants in LUM001-302 received either 140 μg/kg/day or 280 μg/kg/day of maralixibat (as maralixibat chloride). The long-term LUM001-303 dosing was 280 μg/kg QD and 280 μg/kg BID. The long term LUM001-305 dosing was at 280 μg/kg/day. After these stable-dosing periods in the long-term extension studies, changes in antipruritic medications were allowed. Weight-based dose adjustments in antipruritic medications were anticipated over the course of a 5-year study.

[2] = Solubility of MRX drug substance in water and commercially available vehicles, visual observation; type: physicochemical; conditions: Water; 0.02 mg/mL
Protocol: For early pediatric clinical studies, the desired maralixibat solution concentration was in the range of 0.02 to 20 mg/mL (concentration based on maralixibat chloride). Initial formulation studies were conducted to determine the solubility and stability of MRX drug substance in three liquid oral dosing vehicles: water, Pedialyte® (an oral rehydration preparation), and Ora-Sweet® SF (a sugar-free, alcohol-free syrup vehicle for oral preparations). Using these three vehicles, samples were produced with the MRX drug substance at three different concentrations (0.02 mg/mL, 2.0 mg/mL, and 4.0 mg/mL concentrations based on maralixibat chloride). A vortex mixer was used to disperse the drug within the liquid vehicle; drug dissolution status was then visually checked and recorded as in Table 4.

physchem = conditions: water
From the text: Since pediatric patients are the target patient population for the proposed cholestatic disease, an oral solution formulation was selected due to its flexibility for dose adjustment based on patient's body weight and the preference for this type of formulation in young children.

[3] = Maralixibat open label study in PFIC (LUM001-501): pruritus and concomitant antipruritic medication; type: in vivo, human
From the text: In an open label study to evaluate efficacy and long term safety of maralixibat (LUM001) in the treatment of Cholestatic Liver Disease in patients with Progressive Familial Intrahepatic Cholestasis (PFIC) (Study LUM001-501), participants were not allowed to make any changes to their antipruritic therapy during the 13-week treatment period. No new medications used to treat pruritus were to be added during the 13-week treatment period. Therefore, participants had to be on stable antipruritic medication doses (except for weight-based dose adjustments) during the 13-week treatment period. In the long-term exposure period, changes in antipruritic medications were allowed.

[4] = female MDR2−/− mice, daily for 14 days
[5] = Study LUM001-303, long-term extension, of the 19 participants
[6] = Study LUM001-305, long term extension, of the 34 participants

Structure (SMILES): CCCCC1(CCCC)CS(=O)(=O)c2ccc(N(C)C)cc2[C@@H](c2ccc(OCc3ccc(C[N+]45CCN(CC4)CC5)cc3)cc2)[C@H]1O.[Cl-] [SC-435]
- serum ALP (MDR2−/− mice; female MDR2−/− mice (FVB background), daily for 14 days): increased
- liver to body weight ratio (MDR2−/− mice; [4]): attenuated
- retention of BA in the liver (MDR2−/− mice; [4]): significantly reduced
- serum BA concentrations (MDR2−/− mice; [4]): decreased
- serum TB concentrations (MDR2−/− mice; [4]): reduced
- potency in reducing serum total BA and TB levels (MDR2−/− mice; mouse model of SC): more potent than PPAR agonists

- Solubility Observations [2]: Dissolved Instantly
- solubility (physchem): > 100 mg/mL
Structure (SMILES): CCCCC1(CCCC)CS(=O)(=O)c2ccc(N(C)C)cc2[C@@H](c2ccc(OCc3ccc(C[N+]45CCN(CC4)CC5)cc3)cc2)[C@H]1O [maralixibat chloride]
- pruritus scores ([1]; ALGS studies, long-term follow-up): consistently improved
- participants who experienced a decrease in concomitant antipruritic medication [1, 5]: 2 participants
- participants who experienced an increase in concomitant antipruritic medication [1, 5]: Five
- participants with no or minimal change in concomitant antipruritic medication [1, 5]: 12 participants
- pruritus reduction and proportion of participants reducing concomitant antipruritic medication ([1]; Study LUM001-304, 400 μg/kg dose, compared with supporting ALGS studies at lower doses): greatest pruritus reduction and the largest proportion of participants reducing concomitant antipruritic medication
- participants who experienced a decrease in concomitant antipruritic medication ([1]; Study LUM001-304, after Week 22, long-term extension, of the 29 participants): 10 participants
- participants who experienced a decrease in concomitant antipruritic medication [1, 6]: 10 participants
- participants who experienced an increase in concomitant antipruritic medication [1, 6]: Seven
- participants with no or minimal change in concomitant antipruritic medication [1, 6]: 17 participants
- pruritus control after discontinuing one or more antipruritic medications ([3]; 5 exemplary PFIC patients, FIGS. 3A-3E): still maintain control of pruritus
- participants with a decrease in dose or discontinuation of antipruritic medications ([3]; Study LUM001-501, N=33): 13 participants
- participants with an increase in dose of antipruritic medication ([3]; Study LUM001-501, N=33): 5 participants
- pruritus, ItchRO(Obs) scores ([3]; Study LUM001-501, sustained period of follow-up): general improvements in pruritus

From US20230181527A1, “APICAL SODIUM-DEPENDENT TRANSPORTER INHIBITOR COMPOSITIONS” (Mirum Pharmaceuticals, Inc., priority 2021, published 2023)
